Laboratory results published in article PMC4345494, “Cheaper faster drug development validated by the repositioning of drugs against neglected tropical diseases” (Journal of the Royal Society Interface, 2015).

Target: P. vivax DHFR (dihydrofolate reductase) (Plasmodium vivax, UniProt O02604)
Assay: DHFR enzyme inhibition assay (supported by growth assay of yeast expressing PvDHFR)
Assay type: biochemical

P. vivax DHFR (dihydrofolate reductase), sequence (O02604 1-237): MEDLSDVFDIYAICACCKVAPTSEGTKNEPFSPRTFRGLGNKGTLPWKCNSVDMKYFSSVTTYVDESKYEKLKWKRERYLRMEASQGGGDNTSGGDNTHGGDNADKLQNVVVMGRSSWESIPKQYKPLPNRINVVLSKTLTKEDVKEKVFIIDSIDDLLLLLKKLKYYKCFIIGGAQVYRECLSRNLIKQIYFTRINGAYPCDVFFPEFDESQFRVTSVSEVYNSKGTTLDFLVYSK

## CO[C@@H]1[C@H](OC(=O)NC(=O)CCl)CC[C@]2(CO2)[C@H]1[C@@]1(C)O[C@@H]1CC=C(C)C [TNP-470]
  IC50: 160 nM
